Results as given in patent publication US8816119B2, “Arylamide derivatives having antiandrogenic properties” (Medeia Therapeutics Ltd, priority 2010, dated 2014).
Changes are numbered by the printed parent chain.

Tests used:
Assay type in all cases: cell-based
T877A AR = biological target: T1, T877A AR (Homo sapiens, UniProt P10275, T878A); assay: Agonism in T877A mutant AR, AR transactivation assay in COS-1 cells, test compounds alone; details: 10 microM, compound alone
T1 construct: expressed in transfected cells; host or cells: COS-1
T1 sequence (P10275 1-920 T878A): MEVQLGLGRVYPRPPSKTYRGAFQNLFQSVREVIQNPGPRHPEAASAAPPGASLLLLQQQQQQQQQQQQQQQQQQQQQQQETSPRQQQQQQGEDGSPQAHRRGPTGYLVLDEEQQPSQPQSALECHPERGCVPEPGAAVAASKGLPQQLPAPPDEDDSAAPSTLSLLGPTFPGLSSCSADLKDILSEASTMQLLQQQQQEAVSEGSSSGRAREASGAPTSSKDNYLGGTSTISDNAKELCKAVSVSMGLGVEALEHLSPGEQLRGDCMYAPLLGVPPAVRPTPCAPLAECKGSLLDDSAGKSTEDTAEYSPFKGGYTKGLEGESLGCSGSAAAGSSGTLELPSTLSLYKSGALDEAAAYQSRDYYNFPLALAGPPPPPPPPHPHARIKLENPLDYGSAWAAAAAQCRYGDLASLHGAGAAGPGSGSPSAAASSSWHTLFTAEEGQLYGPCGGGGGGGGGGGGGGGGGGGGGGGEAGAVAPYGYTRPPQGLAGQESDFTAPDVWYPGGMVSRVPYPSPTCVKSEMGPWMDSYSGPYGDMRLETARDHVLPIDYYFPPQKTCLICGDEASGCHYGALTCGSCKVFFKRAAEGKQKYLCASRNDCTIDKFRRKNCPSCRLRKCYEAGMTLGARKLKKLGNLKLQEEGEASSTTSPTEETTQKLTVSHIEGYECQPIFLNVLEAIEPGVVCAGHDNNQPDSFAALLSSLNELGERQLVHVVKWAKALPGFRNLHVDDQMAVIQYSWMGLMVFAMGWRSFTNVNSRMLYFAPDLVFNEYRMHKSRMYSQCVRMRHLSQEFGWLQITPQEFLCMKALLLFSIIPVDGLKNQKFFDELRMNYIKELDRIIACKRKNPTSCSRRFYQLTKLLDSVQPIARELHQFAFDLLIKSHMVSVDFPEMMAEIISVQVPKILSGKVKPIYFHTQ
Text: The transfected cells were exposed to test compounds alone. Testosterone was used as reference agonist, and its' relative LUC activity representing AR-dependent transcription was set to 100%.

W741L AR = biological target: T2, W741L AR (Homo sapiens, UniProt P10275, W742L); assay: Agonism in W741L mutant AR, AR transactivation assay in COS-1 cells, test compounds alone; details: 10 microM, compound alone
T2 construct: expressed in transfected cells; host or cells: COS-1
T2 sequence (P10275 1-920 W742L): T1 sequence (P10275 1-920 T878A) with W742L, A878T
Protocol: COS-1 (American Type Culture Collection) were cultured in DMEM supplemented with 10% FBS, penicillin (6.25 U/ml) and streptomycin (6.25 μg/ml) and seeded onto 48-well plates (50 000 cells/well) one day before transfection. Transfection media containing 2.5% charcoal-stripped FBS in DMEM was changed on cells 4 h prior to transfection. Cells were transfected with 50 ng of reporter gene plasmid (pPB-286/+32-LUC; PB, probasin promoter), 5 ng of AR expression plasmid (pSG5-hAR), and 5 ng of pCMVβ (an internal, beta-galactosidase control for transfection efficiency and cell growth) using TranslT-LT1 reagent (Mirus Bio Corporation) according to the manufacturer's instructions. […] After 18 h, reporter gene activities (LUC and beta-galactosidase) were determined according to standard methods. The data are expressed as relative LUC activity (luciferase light units divided by beta-galactosidase A420nm to control for transfection efficiency) of a given compound in relation to the activity of a reference test item (=100%).
Agonism in W741L AR of compounds of the present invention was measured in AR transactivation assay in COS-1 cells as described above except that AR expression vector harboring the W741L mutation was used instead of the WT AR. The transfected cells were exposed to test compounds alone.

WT AR = biological target: T3, WT AR (Homo sapiens, UniProt P10275); assay: Antagonism in WT AR, AR transactivation reporter gene assay in COS-1 cells, competitive setting with 50 nM testosterone; details: 18 h
T3 construct: expressed in transfected cells; host or cells: COS-1
T3 sequence (P10275 1-920): T1 sequence (P10275 1-920 T878A) with A878T
Protocol: After 18 h, reporter gene activities (LUC and beta-galactosidase) were determined according to standard methods. The data are expressed as relative LUC activity (luciferase light units divided by beta-galactosidase A420nm to control for transfection efficiency) of a given compound in relation to the activity of a reference test item (=100%).
Antagonism in WT AR of compounds of the present invention was measured in AR transctivation assay in COS-1 cells in competitive setting using testosterone as a reference agonist as described above. […] Relative LUC activity representing AR-dependent transcription obtained by exposure to testosterone alone was set to 100%.

Compound: CCS(=O)(=O)CC(O)(C(=O)Nc1ccc(C#N)c(C(F)(F)F)c1)c1ccc(F)cc1 (stereo not drawn) [Example 1, N-[4-cyano-3-(trifluoro-methyl)phenyl]-3-(ethanesulfonyl)-2-(4-fluorophenyl)-2-hydroxypropanamide]
- Relative LUC activity (%) in T877A AR in relation to testosterone (100%) (T877A AR): 14%
- Relative LUC activity (%) in W741L AR in relation to BIC (100%) (W741L AR): 12%

Compound: CC(C)CCS(=O)(=O)CC(O)(C(=O)Nc1ccc(C#N)c(C(F)(F)F)c1)c1ccc(F)cc1 (stereo not drawn) [Example 2, N-[4-cyano-3-(trifluoromethyl)phenyl]-2-(4-fluorophenyl)-2-hydroxy-3-[(3-methylbutane)-sulfonyl]propanamide]
- Relative LUC activity (%) indicating residual androgen activity in relation to testosterone (100%) (WT AR; 1 microM compound): 12%
- Relative LUC activity (%) indicating residual androgen activity in relation to testosterone (100%) (WT AR; 10 microM compound): 3%

Compound: N#Cc1ccc(NC(=O)C(O)(CS(=O)(=O)Cc2ccco2)c2ccc(C(F)(F)F)cc2)cc1C(F)(F)F (stereo not drawn) [Example 3, N-[4-cyano-3-(trifluoro-methyl)phenyl]-3-[(furan-2-ylmethane)sulfonyl]-2-hydroxy-2-[4-(trifluoromethyl)phenyl]propanamide]
- Relative LUC activity (%) in T877A AR in relation to testosterone (100%) (T877A AR): 3%
- Relative LUC activity (%) in W741L AR in relation to BIC (100%) (W741L AR): 4%
- Relative LUC activity (%) indicating residual androgen activity in relation to testosterone (100%) (WT AR; 1 microM compound): 17%
- Relative LUC activity (%) indicating residual androgen activity in relation to testosterone (100%) (WT AR; 10 microM compound): 3%

Compound: N#Cc1ccc(NC(=O)C(O)(CS(=O)(=O)c2ccc(F)cc2)c2ccc(C(F)(F)F)cc2)cc1Cl (stereo not drawn) [Example 4, N-(3-chloro-4-cyanophenyl)-3-[(4-fluorobenzene)sulfonyl]-2-hydroxy-2-[4-(trifluoromethyl)phenyl]propanamide]
- Relative LUC activity (%) in T877A AR in relation to testosterone (100%) (T877A AR): 1%
- Relative LUC activity (%) in W741L AR in relation to BIC (100%) (W741L AR): 8%
- Relative LUC activity (%) indicating residual androgen activity in relation to testosterone (100%) (WT AR; 1 microM compound): 21%
- Relative LUC activity (%) indicating residual androgen activity in relation to testosterone (100%) (WT AR; 10 microM compound): 1%

Compound: CCS(=O)(=O)CC(O)(C(=O)Nc1ccc(C#N)c(Cl)c1)c1ccc(F)c(F)c1 (stereo not drawn) [Example 5, N-(3-chloro-4-cyanophenyl)-2-(3,4-difluorophenyl)-3-(ethanesulfonyl)-2-hydroxypropanamide]
- Relative LUC activity (%) in T877A AR in relation to testosterone (100%) (T877A AR): 9%
- Relative LUC activity (%) in W741L AR in relation to BIC (100%) (W741L AR): 18%

Compound: N#Cc1ccc(NC(=O)C(O)(CS(=O)(=O)c2ccc(F)c(F)c2)c2ccc(F)cc2)cc1Cl (stereo not drawn) [Example 6, N-(3-chloro-4-cyanophenyl)-3-[(3,4-difluorobenzene)sulfonyl]-2-(4-fluorophenyl)-2-hydroxypropanamide]
- Relative LUC activity (%) indicating residual androgen activity in relation to testosterone (100%) (WT AR; 1 microM compound): 7%
- Relative LUC activity (%) indicating residual androgen activity in relation to testosterone (100%) (WT AR; 10 microM compound): 5%

Compound: CCS(=O)(=O)CC(O)(C(=O)Nc1ccc(C#N)c(C(F)(F)F)c1)c1ccc(C(F)(F)F)cc1 (stereo not drawn) [Example 17, N-[4-cyano-3-(trifluoromethyl)phenyl]-3-(ethanesulfonyl)-2-[4-(trifuoromethyl)phenyl]-2-hydroxypropanamide]
- Relative LUC activity (%) indicating residual androgen activity in relation to testosterone (100%) (WT AR; 1 microM compound): 18%
- Relative LUC activity (%) indicating residual androgen activity in relation to testosterone (100%) (WT AR; 10 microM compound): 3%

Compound: COc1ccc(C(O)(CS(=O)(=O)c2ccc(F)c(F)c2)C(=O)Nc2ccc(C#N)c(C(F)(F)F)c2)cc1F (stereo not drawn) [Example 22, N-(4-cyano-3-(trifluoromethyl)phenyl)-3-[(3,4-difluorobenzene)sulfonyl]-2-hydroxy-2-[3-fluoro-4-(methoxy)phenyl]propanamide]
- Relative LUC activity (%) indicating residual androgen activity in relation to testosterone (100%) (WT AR; 1 microM compound): 9%
- Relative LUC activity (%) indicating residual androgen activity in relation to testosterone (100%) (WT AR; 10 microM compound): 3%

Compound: COc1ccc(C(O)(CS(=O)(=O)c2cccc(F)c2)C(=O)Nc2ccc(C#N)c(Cl)c2)cc1F (stereo not drawn) [Example 33, N-(3-chloro-4-cyanophenyl)-2-(3-fluoro-4-methoxyphenyl)-3-[(3-fluorobenzene)sulfonyl]-2-hydroxypropanamide]
- Relative LUC activity (%) indicating residual androgen activity in relation to testosterone (100%) (WT AR; 1 microM compound): 5%
- Relative LUC activity (%) indicating residual androgen activity in relation to testosterone (100%) (WT AR; 10 microM compound): 1%

Compound: N#Cc1ccc(NC(=O)C(O)(CS(=O)(=O)c2cccc(F)c2)c2ccc(F)c(F)c2)cc1C(F)(F)F (stereo not drawn) [Example 39, N-[4-cyano-3-(trifluoromethyl)phenyl]-2-(3,4-difluorophenyl)-3-[(3-fluorobenzene)sulfonyl]-2-hydroxypropanamide]
- Relative LUC activity (%) indicating residual androgen activity in relation to testosterone (100%) (WT AR; 1 microM compound): 14%
- Relative LUC activity (%) indicating residual androgen activity in relation to testosterone (100%) (WT AR; 10 microM compound): 2%
